# Data reported in patent publication US20260124184A1, “ONCE DAILY ALDOSTERONE SYNTHASE INHIBITOR (R)-(+)-5-(P-CYANOPHENYL)-5,6,7,8-TETRAHYDROIMIDAZO[L,5-A]PYRIDINE” (priority 2022, published 2026).
# Read-outs that look alike come from different tables or passages of the source.
# Legend:
# [1] = test system: patients with primary aldosteronism
# Experimental: (§1) A double-blind, randomized, Phase 2 trial was conducted between November 2019 and June 2022 at 11 centres in Italy, Switzerland and the Netherlands (NCT04007406). […] Patients requiring fixed-dose antihypertensive therapy continued treatment throughout the study; steroid therapies, β-adrenergic and renin-angiotensin-aldosterone system blockers were not permitted. At 14-day intervals, office blood pressures were recorded and blood samples were taken for measurement of steroid and peptide hormones and electrolytes at a central laboratory.
# The urinary content of tetrahydroaldosterone (THA) was measured centrally by gas chromatography-coupled mass spectrometry (GC-MS).
# [2] = test system: patients with primary aldosteronism; remark: listed apart in the source
# Experimental: as §1
# A centrally calibrated and validated device (Spacelab Healthcare) was used; the device was fitted at the hospital outpatient department by medically qualified staff on day −1 and day 55 prior to supervised drug intake by the patient. The light digital monitor with convenient carry pouches takes the blood pressure reading at regular intervals by inflating and subsequently deflating customized cuffs placed around the non-dominant upper arm for 24-hour recording of about 70 readings. Patients followed their regular routines yet refrained from exercising or taking a bath or shower. In addition, to assure proper measurements, the patient was asked to sit down prior to reading, keep the cuff at the same level as the heart and rest the arm steady. The patient was also asked to keep a diary on activities, meals and sleep to document what he/she was doing just before the reading was taken. At the end of the 24-hour period, the patient was able to remove the monitor and cuff, shower or bathe and return the device to the Investigator at the clinic. The machine stored all readings as source data that were uploaded in the eCRF.
# For all efficacy endpoints, changes from baseline were calculated from linear models and accompanied by 95% confidence intervals and p values. Log-transformed values were used for changes in ARR. The full analysis set (FAS) and safety set were defined as all randomized patients who received at least one dose of study drug.
# [3] = 4 mg once daily, n=10, Day 1 (baseline)
# [4] = 8 mg once daily, n=12, Day 1 (baseline)
# [5] = 12 mg once daily, n=13, Day 1 (baseline)
# [6] = all doses combined, n=35, Day 1 (baseline)
# [7] = all doses combined, n=35, Day 56
substance,measurement,setting,value
"(R)-(+)-5-(p-cyanophenyl)-5,6,7,8-tetrahydroimidazolium[1,5-a]pyridine dihydrogen phosphate [dexfadrostat phosphate]","change in urine THA content from baseline to Day 56, mean","[1]; 4 mg once daily, n=10",−66.90 24 μg/24-hour
same,"change in urine THA content from baseline to Day 56, median","[1]; 4 mg once daily, n=10",−61.00 24 μg/24-hour
same,"urine tetrahydroaldosterone (THA) content, mean",[1]; [3],78.90 24 μg/24-hour
same,"urine tetrahydroaldosterone (THA) content, median",[1]; [3],80.00 24 μg/24-hour
same,"urine tetrahydroaldosterone (THA) content, mean","[1]; 4 mg once daily, n=10, Day 56",12.00 24 μg/24-hour
same,"urine tetrahydroaldosterone (THA) content, median","[1]; 4 mg once daily, n=10, Day 56",11.50 24 μg/24-hour
same,"change in urine THA content from baseline to Day 56, mean","[1]; 8 mg once daily, n=12",−63.00 24 μg/24-hour
same,"change in urine THA content from baseline to Day 56, median","[1]; 8 mg once daily, n=12",−50.00 24 μg/24-hour
same,"urine tetrahydroaldosterone (THA) content, mean",[1]; [4],71.67 24 μg/24-hour
same,"urine tetrahydroaldosterone (THA) content, median",[1]; [4],59.50 24 μg/24-hour
same,"urine tetrahydroaldosterone (THA) content, mean","[1]; 8 mg once daily, n=12, Day 56",8.67 24 μg/24-hour
same,"urine tetrahydroaldosterone (THA) content, median","[1]; 8 mg once daily, n=12, Day 56",5.00 24 μg/24-hour
same,"change in urine THA content from baseline to Day 56, mean","[1]; 12 mg once daily, n=13",−58.31 24 μg/24-hour
same,"change in urine THA content from baseline to Day 56, median","[1]; 12 mg once daily, n=13",−66.00 24 μg/24-hour
same,"urine tetrahydroaldosterone (THA) content, mean",[1]; [5],67.38 24 μg/24-hour
same,"urine tetrahydroaldosterone (THA) content, median",[1]; [5],69.00 24 μg/24-hour
same,"urine tetrahydroaldosterone (THA) content, mean","[1]; 12 mg once daily, n=13, Day 56",9.08 24 μg/24-hour
same,"urine tetrahydroaldosterone (THA) content, median","[1]; 12 mg once daily, n=13, Day 56",5.00 24 μg/24-hour
same,effect on urinary tetrahydroaldosterone content,"[1]; all three doses, 24-hour urine at end of active treatment vs baseline",significant reductions (p<0.0001) in tetrahydroaldosterone (THA) content
same,"urine aldosterone content, mean","[1]; baseline urine aldosterone 10-50 μg/24-hour, 4 mg QD, Day 1 (baseline)",26 μg/24-hour
same,"urine aldosterone content, mean","[1]; baseline urine aldosterone 10-50 μg/24-hour, 4 mg QD, Day 56",6 μg/24-hour
same,"urine aldosterone content, mean","[1]; baseline urine aldosterone 10-50 μg/24-hour, 8 mg QD, Day 1 (baseline)",33 μg/24-hour
same,"urine aldosterone content, mean","[1]; baseline urine aldosterone 10-50 μg/24-hour, 8 mg QD, Day 56",8 μg/24-hour
same,"urine aldosterone content, mean","[1]; baseline urine aldosterone 10-50 μg/24-hour, 12 mg QD, Day 1 (baseline)",29 μg/24-hour
same,"urine aldosterone content, mean","[1]; baseline urine aldosterone 10-50 μg/24-hour, 12 mg QD, Day 56",3 μg/24-hour
same,"urine aldosterone content, mean","[1]; baseline urine aldosterone 50-100 μg/24-hour, 4 mg QD, Day 1 (baseline)",74 μg/24-hour
same,"urine aldosterone content, mean","[1]; baseline urine aldosterone 50-100 μg/24-hour, 4 mg QD, Day 56",15 μg/24-hour
same,"urine aldosterone content, mean","[1]; baseline urine aldosterone 50-100 μg/24-hour, 8 mg QD, Day 1 (baseline)",69 μg/24-hour
same,"urine aldosterone content, mean","[1]; baseline urine aldosterone 50-100 μg/24-hour, 8 mg QD, Day 56",5 μg/24-hour
same,"urine aldosterone content, mean","[1]; baseline urine aldosterone 50-100 μg/24-hour, 12 mg QD, Day 1 (baseline)",68 μg/24-hour
same,"urine aldosterone content, mean","[1]; baseline urine aldosterone 50-100 μg/24-hour, 12 mg QD, Day 56",12 μg/24-hour
same,"urine aldosterone content, mean","[1]; baseline urine aldosterone 100-250 μg/24-hour, 4 mg QD, Day 1 (baseline)",123 μg/24-hour
same,"urine aldosterone content, mean","[1]; baseline urine aldosterone 100-250 μg/24-hour, 4 mg QD, Day 56",13 μg/24-hour
same,"urine aldosterone content, mean","[1]; baseline urine aldosterone 100-250 μg/24-hour, 8 mg QD, Day 1 (baseline)",69 μg/24-hour
same,"urine aldosterone content, mean","[1]; baseline urine aldosterone 100-250 μg/24-hour, 8 mg QD, Day 56",5 μg/24-hour
same,"urine aldosterone content, mean","[1]; baseline urine aldosterone 100-250 μg/24-hour, 12 mg QD, Day 1 (baseline)",68 μg/24-hour
same,"urine aldosterone content, mean","[1]; baseline urine aldosterone 100-250 μg/24-hour, 12 mg QD, Day 56",12 μg/24-hour
same,"change in 24-h aSBP from baseline to Day 56, mean","[2]; 4 mg once daily, n=10",−8.10 mmHg
same,"change in 24-h aSBP from baseline to Day 56, median","[2]; 4 mg once daily, n=10",−8.17 mmHg
same,"24-h aSBP, mean",[2]; [3],136.84 mmHg
same,"24-h aSBP, median",[2]; [3],138.38 mmHg
same,"24-h aSBP, mean","[2]; 4 mg once daily, n=10, Day 56",128.74 mmHg
same,"24-h aSBP, median","[2]; 4 mg once daily, n=10, Day 56",129.43 mmHg
same,"change in 24-h aSBP from baseline to Day 56, mean","[2]; 8 mg once daily, n=12",−13.95 mmHg
same,"change in 24-h aSBP from baseline to Day 56, median","[2]; 8 mg once daily, n=12",−13.33 mmHg
same,"24-h aSBP, mean",[2]; [4],144.88 mmHg
same,"24-h aSBP, median",[2]; [4],144.76 mmHg
same,"24-h aSBP, mean","[2]; 8 mg once daily, n=12, Day 56",130.93 mmHg
same,"24-h aSBP, median","[2]; 8 mg once daily, n=12, Day 56",129.43 mmHg
same,"change in 24-h aSBP from baseline to Day 56, mean","[2]; 12 mg once daily, n=13",−9.81 mmHg
same,"change in 24-h aSBP from baseline to Day 56, median","[2]; 12 mg once daily, n=13",−12.43 mmHg
same,"24-h aSBP, mean",[2]; [5],144.96 mmHg
same,"24-h aSBP, median",[2]; [5],146.87 mmHg
same,"24-h aSBP, mean","[2]; 12 mg once daily, n=13, Day 56",135.15 mmHg
same,"24-h aSBP, median","[2]; 12 mg once daily, n=13, Day 56",130.82 mmHg
same,decrease in mean 24-h aSBP from baseline to day 56,"[2]; all dose groups combined, p<0.0001",10.7 mmHg
same,"change in aSBP from baseline to Day 56, mean","[2]; all doses combined, n=35",−10.74 mmHg
same,"change in aSBP from baseline to Day 56, median","[2]; all doses combined, n=35",−12.23 mmHg
same,"24-hour ambulatory SBP (aSBP), mean",[2]; [6],142.62 mmHg
same,"24-hour ambulatory SBP (aSBP), median",[2]; [6],143.4 mmHg
same,"24-hour ambulatory SBP (aSBP), mean",[2]; [7],131.87 mmHg
same,"24-hour ambulatory SBP (aSBP), median",[2]; [7],130.41 mmHg
same,LSM change in 24-hour aSBP from baseline,"[2]; all patients, Day 1 to Day 56, FIG. 2B, p<0.0001",−10.7 mmHg
same,effect on 24-hour aSBP,"[2]; each dose arm, baseline to day 56",significant reduction (p<0.001) in 24-hour aSBP
